Results reported in ChEMBL document CHEMBL1201862, “PubChem BioAssay data set” (2004).
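1) Cells in 96-well plates. 2) Compound, 48 h, 5 concentrations. 3) Linear interpolation between surrounding doses. 4) Unreached endpoint = highest concentration. At the GI50, growth is halved.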 The source made the active and inactive calls. Cut-off read from the data, not from the text of the source: active = GI50 up to about 1.1 µM and inactive = higher.

Columns and labels:
Assay in all cases: NCI anticancer screen, dose series, 48 h
786-0 = tested on: 786-0
A498 = tested on: A498
A549 = tested on: A549
ACHN = tested on: ACHN
BT-549 = tested on: BT-549
CAKI-1 = tested on: CAKI-1
CCRF-CEM = tested on: CCRF-CEM
COLO 205 = tested on: COLO 205
DU-145 = tested on: DU-145
EKVX = tested on: EKVX
HCC 2998 = tested on: HCC 2998
HCT-116 = tested on: HCT-116
HCT-15 = tested on: HCT-15
HL-60 = tested on: HL-60
HOP-92 = tested on: HOP-92
HT-29 = tested on: HT-29
IGROV-1 = tested on: IGROV-1
K562 = tested on: K562
LOX IMVI = tested on: LOX IMVI
M14 = tested on: M14
MCF7 = tested on: MCF7
MDA-MB-231 = tested on: MDA-MB-231
MDA-MB-435 = tested on: MDA-MB-435
MDA-N = tested on: MDA-N
MOLT-4 = tested on: MOLT-4
Malme-3M = tested on: Malme-3M
NCI-H226 = tested on: NCI-H226
NCI-H23 = tested on: NCI-H23
NCI-H460 = tested on: NCI-H460
NCI-H522 = tested on: NCI-H522
NCI/ADR-RES = tested on: NCI/ADR-RES
OVCAR-3 = tested on: OVCAR-3
OVCAR-4 = tested on: OVCAR-4
OVCAR-5 = tested on: OVCAR-5
OVCAR-8 = tested on: OVCAR-8
PC-3 = tested on: PC-3
RPMI-8226 = tested on: RPMI-8226
RXF 393 = tested on: RXF 393
SF-295 = tested on: SF-295
SF-539 = tested on: SF-539
SK-MEL-28 = tested on: SK-MEL-28
SK-MEL-2 = tested on: SK-MEL-2
SK-MEL-5 = tested on: SK-MEL-5
SK-OV-3 = tested on: SK-OV-3
SN12C = tested on: SN12C
SNB-19 = tested on: SNB-19
SR = tested on: SR
SW-620 = tested on: SW-620
T47D = tested on: T47D
U-251 = tested on: U-251
UACC-257 = tested on: UACC-257
UACC-62 = tested on: UACC-62
UO-31 = tested on: UO-31
HOP-62 = tested on: HOP-62
Hs-578T = tested on: Hs-578T
SF-268 = tested on: SF-268
SNB-75 = tested on: SNB-75
TK-10 = tested on: TK-10

N#CC1C(=O)N(c2ccccc2)NC12OC(=O)c1ccncc12 (centres undefined)
GI50 (786-0): > 20 µM (inactive)
GI50 (A498): > 20 µM (inactive)
GI50 (A549): > 20 µM (inactive)
GI50 (ACHN): > 20 µM (inactive)
GI50 (BT-549): > 20 µM (inactive)
GI50 (CAKI-1): > 20 µM (inactive)
GI50 (CCRF-CEM): > 20 µM (inactive)
GI50 (COLO 205): > 20 µM (inactive)
GI50 (DU-145): > 20 µM (inactive)
GI50 (EKVX): > 20 µM (inactive)
GI50 (HCC 2998): > 20 µM (inactive)
GI50 (HCT-116): > 20 µM (inactive)
GI50 (HCT-15): > 20 µM
GI50 (HL-60): > 20 µM (inactive)
GI50 (HOP-92): > 20 µM (inactive)
GI50 (HT-29): > 20 µM (inactive)
GI50 (IGROV-1): > 20 µM (inactive)
GI50 (K562): > 20 µM (inactive)
GI50 (LOX IMVI): > 20 µM (inactive)
GI50 (M14): > 20 µM (inactive)
GI50 (MCF7): > 20 µM (inactive)
GI50 (MDA-MB-231): > 20 µM (inactive)
GI50 (MDA-MB-435): > 20 µM (inactive)
GI50 (MDA-N): > 20 µM (inactive)
GI50 (MOLT-4): > 20 µM (inactive)
GI50 (Malme-3M): > 20 µM (inactive)
GI50 (NCI-H226): > 20 µM (inactive)
GI50 (NCI-H23): > 20 µM (inactive)
GI50 (NCI-H460): > 20 µM (inactive)
GI50 (NCI-H522): > 20 µM (inactive)
GI50 (NCI/ADR-RES): > 20 µM (inactive)
GI50 (OVCAR-3): > 20 µM (inactive)
GI50 (OVCAR-4): > 20 µM (inactive)
GI50 (OVCAR-5): > 20 µM (inactive)
GI50 (OVCAR-8): > 20 µM (inactive)
GI50 (PC-3): > 20 µM (inactive)
GI50 (RPMI-8226): > 20 µM (inactive)
GI50 (RXF 393): > 20 µM (inactive)
GI50 (SF-295): > 20 µM (inactive)
GI50 (SF-539): > 20 µM (inactive)
GI50 (SK-MEL-28): > 20 µM (inactive)
GI50 (SK-MEL-2): > 20 µM (inactive)
GI50 (SK-MEL-5): > 20 µM (inactive)
GI50 (SK-OV-3): > 20 µM (inactive)
GI50 (SN12C): > 20 µM (inactive)
GI50 (SNB-19): > 20 µM (inactive)
GI50 (SR): > 20 µM (inactive)
GI50 (SW-620): > 20 µM (inactive)
GI50 (T47D): > 20 µM (inactive)
GI50 (U-251): > 20 µM (inactive)
GI50 (UACC-257): > 20 µM (inactive)
GI50 (UACC-62): > 20 µM (inactive)
GI50 (UO-31): > 20 µM (inactive)

CC(SC(=S)N1CCCC1)C(=O)Nc1nnc(-c2ccc(Cl)cc2)o1 (centres undefined)
GI50 (786-0): 14.1 µM (inactive)
GI50 (A498): 34 µM (inactive)
GI50 (A549): 31 µM (inactive)
GI50 (ACHN): 33 µM (inactive)
GI50 (BT-549): 39.8 µM (inactive)
GI50 (CCRF-CEM): < 0.01 µM (active)
GI50 (COLO 205): 37.6 µM (inactive)
GI50 (DU-145): 44.2 µM (inactive)
GI50 (HCC 2998): 57.4 µM (inactive)
GI50 (HCT-116): 19.5 µM (inactive)
GI50 (HCT-15): 17 µM
GI50 (HL-60): < 0.01 µM (active)
GI50 (HOP-62): 34.1 µM (inactive)
GI50 (HOP-92): 65.8 µM (inactive)
GI50 (HT-29): 21.8 µM (inactive)
GI50 (Hs-578T): 44.8 µM (inactive)
GI50 (IGROV-1): 32 µM (inactive)
GI50 (K562): 8.85 µM (inactive)
GI50 (LOX IMVI): 18.7 µM (inactive)
GI50 (M14): 15.5 µM (inactive)
GI50 (MCF7): 33.7 µM (inactive)
GI50 (MDA-MB-231): 40 µM (inactive)
GI50 (MDA-MB-435): 36.1 µM (inactive)
GI50 (Malme-3M): 23.8 µM (inactive)
GI50 (NCI-H226): 40.3 µM (inactive)
GI50 (NCI-H23): 39.5 µM (inactive)
GI50 (NCI-H460): 39.4 µM (inactive)
GI50 (NCI/ADR-RES): 22.8 µM (inactive)
GI50 (OVCAR-3): 32.7 µM (inactive)
GI50 (OVCAR-4): 35.5 µM (inactive)
GI50 (OVCAR-5): 33.2 µM (inactive)
GI50 (OVCAR-8): 40.1 µM (inactive)
GI50 (PC-3): 35.6 µM (inactive)
GI50 (RPMI-8226): 14.6 µM (inactive)
GI50 (RXF 393): 55.2 µM (inactive)
GI50 (SF-268): 18 µM (inactive)
GI50 (SF-539): 85.3 µM (inactive)
GI50 (SK-MEL-28): 46.7 µM (inactive)
GI50 (SK-MEL-2): 30.5 µM (inactive)
GI50 (SK-MEL-5): 29.5 µM (inactive)
GI50 (SK-OV-3): 52.7 µM (inactive)
GI50 (SN12C): 17.7 µM (inactive)
GI50 (SNB-19): 35.6 µM (inactive)
GI50 (SNB-75): 45.9 µM (inactive)
GI50 (SW-620): 36.6 µM (inactive)
GI50 (T47D): 48.8 µM (inactive)
GI50 (TK-10): 50.4 µM (inactive)
GI50 (U-251): 29.9 µM (inactive)
GI50 (UACC-257): 40.4 µM (inactive)
GI50 (UACC-62): 30.5 µM (inactive)
GI50 (UO-31): 19.2 µM (inactive)
